Test results reported in PubChem BioAssay (NCI).
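Method: 48-hour compound exposure of cells in 96-well plates, five concentrations, linear interpolation of endpoints. GI50 is the concentration that inhibits growth by half. TGI is the concentration that stops growth completely.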

Test system: MDA-MB-468 breast
Experiment: NCI anticancer screen, dose series, 48 h

Row | SMILES | GI50 | TGI
1 | COc1ccc(/C=C2\CN(C(=O)C(Cl)Cl)C/C(=C\c3ccc(OC)c(OC)c3)C2=O)cc1OC | 224 nM | 621 nM
2 | Nc1ccc(C(=O)c2ccc(N)c(Br)c2)cc1Br | 248 nM | 709 nM
3 | COc1ccccc1N1CCN(C2=NN=C(c3cccc(Cl)c3)c3ccccc3C2)CC1 | 382 nM | > 100000 nM
4 | Fc1ccc(Oc2nccc(-c3c(-c4ccc(F)cc4)ncn3C3CCNCC3)n2)cc1 | 4700 nM | > 24000 nM
5 | O=C(Nc1ccc(-n2cc(-c3ccncc3)c(-c3ccc(Cl)c(O)c3)n2)cc1)Nc1cc(C(F)(F)F)cc(C(F)(F)F)c1 | 1790 nM | 5040 nM
6 | N=C1c2nc3n(c2C(=O)c2nc4n(c21)CCCC4)CCCC3 | 8950 nM | 53400 nM
7 | CC(=O)Nc1cccc(-n2cnc3cc(-c4ccc(O)cc4)ccc32)c1 | 259 nM | 650 nM
8 | Cc1ccccc1CN1CC2=C(CCN(Cc3ccccc3)C2=O)N2CCN=C12 | 773 nM | 6830 nM
9 | CCCCCCCCCNCCCCCCCCC | 1770 nM | 3220 nM
10 | C=C1CC[C@@]2(C#N)[C@H]3[C@H](CC[C@@H]2C)[C@@H](C)C[C@@H](CC(C)(C)C#N)[C@H]13 | 2790 nM | 25900 nM
11 | Nc1nc(Nc2ccc3c(c2)CC[C@@H](N2CCCC2)CC3)nn1-c1cc2c(nn1)-c1ccccc1CCC2 | 1750 nM | 3390 nM
12 | COc1ccc(/C=C\c2cc(OC)c(OC)c(OC)c2)cc1OC(=O)C(N)CCC(=O)O (stereo not given) |  | > 100000 nM
13 | COc1cc(NC(=O)c2cc(OC)c3ccn(C)c3c2)cc2c1C[C@]1(C)CC[C@@H](O)C(C)(C)[C@H]1O2 | 6610 nM | > 100000 nM
